Laboratory results as given in patent publication US20230265151A1, “GIP/GLP1 CO-AGONIST COMPOUNDS” (priority 2020, published 2023).
Where two headings read alike, the source gives them in different places. *1 amine or outer side, *2 acyl side, *3 side chain or, on linkers, in order; H or OH if unused. Where a SMILES comes first, the peptide text is derived from it. Side-chain parts run from the residue outwards. [ ]: non-standard residue; d: D form. The star is where a group is joined. αMePhe(2-F) = C[C@](N)(Cc1ccccc1F)C(=O)O; γGlu = O=C(O)[C@H](CCC(=O)[*:2])N[*:1]; αMeY = C[C@](N)(Cc1ccc(O)cc1)C(=O)O; αMeF = C[C@](N)(Cc1ccccc1)C(=O)O; 4Pal = N[C@@H](Cc1ccncc1)C(=O)O; αMeL = CC(C)C[C@](C)(N)C(=O)O; Lauroyl = CCCCCCCCCCCC(=O)*; Orn = NCCC[C@H](N)C(=O)O; AEEA = NCCOCCOCC(=O)O; Aib = CC(C)(N)C(=O)O

Tests used:
Type in all cases: cell-based
hGIPR = target: T1, hGIPR (Homo sapiens, UniProt P48546); test: Functional cAMP formation (HTRF) in HEK-293 clonal cells expressing hGIPR, 0.1% bovine casein, without or with 1.0% human serum albumin; conditions: 37° C.; for Emax: HEK293, cAMP, 0.1% bovine casein and 1.0% human serum albumin, percent of maximal response to GIP(1-42)NH2, read-out: hGIPR Emax, % ± SEM; for EC50: cAMP, 0.1% bovine casein (no human serum albumin), geometric mean, read-out: hGIPR EC50, nM (SEM, n)
T1 construct: expressed in transfected cells
T1 sequence (P48546 22-466): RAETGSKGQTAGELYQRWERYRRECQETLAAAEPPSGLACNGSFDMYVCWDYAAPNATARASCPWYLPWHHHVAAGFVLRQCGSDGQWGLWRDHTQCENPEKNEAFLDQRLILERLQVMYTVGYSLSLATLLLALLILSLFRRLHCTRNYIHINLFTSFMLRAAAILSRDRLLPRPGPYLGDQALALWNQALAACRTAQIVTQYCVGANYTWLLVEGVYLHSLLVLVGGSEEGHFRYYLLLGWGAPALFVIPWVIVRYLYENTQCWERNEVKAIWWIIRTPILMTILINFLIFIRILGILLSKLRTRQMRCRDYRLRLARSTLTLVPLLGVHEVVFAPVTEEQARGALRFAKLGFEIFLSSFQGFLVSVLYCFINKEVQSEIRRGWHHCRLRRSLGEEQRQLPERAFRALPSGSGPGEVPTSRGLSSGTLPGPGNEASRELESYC
How it was run: (§1)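 Cells were stimulated with peptide for 30 min at 37° C, then intracellular cAMP was measured by competitive HTRF (665/620 nm ratio) and converted to nM using a cAMP standard curve. Relative EC50 and Emax came from four-parameter logistic fits of percent maximal response against peptide concentration.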

hGCGR = target: T2, hGCGR (Homo sapiens, UniProt P47871); test: Functional cAMP formation (HTRF) in HEK-293 clonal cells expressing hGCGR, 0.1% bovine casein, without or with 1.0% human serum albumin; conditions: cAMP, 37° C., read-out: hGCGR EC50, nM (SEM, n)
T2 construct: expressed in transfected cells
T2 sequence (P47871 26-477): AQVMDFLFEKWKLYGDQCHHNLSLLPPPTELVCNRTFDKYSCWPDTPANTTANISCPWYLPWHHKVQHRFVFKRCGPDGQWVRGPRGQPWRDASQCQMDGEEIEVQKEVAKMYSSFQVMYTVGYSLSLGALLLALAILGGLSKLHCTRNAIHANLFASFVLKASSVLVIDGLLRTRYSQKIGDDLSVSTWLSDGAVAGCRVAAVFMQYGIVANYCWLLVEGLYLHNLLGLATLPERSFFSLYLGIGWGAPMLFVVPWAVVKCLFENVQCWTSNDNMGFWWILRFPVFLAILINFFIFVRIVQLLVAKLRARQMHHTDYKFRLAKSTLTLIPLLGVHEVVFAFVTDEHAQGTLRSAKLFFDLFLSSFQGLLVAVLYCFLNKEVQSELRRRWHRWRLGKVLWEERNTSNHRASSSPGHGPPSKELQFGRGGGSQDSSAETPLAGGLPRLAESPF
How it was run: as §1

hGLP-1R = hGLP-1R (Homo sapiens, UniProt P43220); test: Functional cAMP formation (HTRF) in HEK-293 clonal cells expressing hGLP-1R, 0.1% bovine casein, without or with 1.0% human serum albumin; set-up: expressed in transfected cells; conditions: 37° C.; for Emax: HEK293, cAMP, percent of maximal response to GLP-1(7-36)NH2, read-out: hGLP-1R Emax, % ± SEM; for EC50: cAMP, 0.1% bovine casein (no human serum albumin), geometric mean, read-out: hGLP-1R EC50, nM (SEM, n)
hGLP-1R, sequence (P43220 24-463): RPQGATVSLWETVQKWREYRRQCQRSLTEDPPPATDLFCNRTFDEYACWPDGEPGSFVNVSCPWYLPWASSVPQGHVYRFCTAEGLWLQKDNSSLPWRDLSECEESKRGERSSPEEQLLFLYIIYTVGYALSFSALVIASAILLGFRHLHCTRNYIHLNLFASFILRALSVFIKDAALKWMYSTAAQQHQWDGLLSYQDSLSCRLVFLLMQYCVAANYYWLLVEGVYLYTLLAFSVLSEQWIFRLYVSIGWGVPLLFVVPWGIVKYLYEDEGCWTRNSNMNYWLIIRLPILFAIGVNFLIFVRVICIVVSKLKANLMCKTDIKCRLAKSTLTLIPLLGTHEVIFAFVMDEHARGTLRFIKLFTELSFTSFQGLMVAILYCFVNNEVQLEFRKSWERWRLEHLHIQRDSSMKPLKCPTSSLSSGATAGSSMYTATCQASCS
How it was run: as §1

[1] = 0.1% bovine casein (no human serum albumin), geometric mean
[2] = 0.1% bovine casein and 1.0% human serum albumin, geometric mean (SEM, n)

| SMILES | Emax (hGIPR) [%] | EC50 (hGIPR) [nM] | EC50 (hGCGR; [1]) [nM] | EC50 (hGCGR; [2]) [nM] | Emax (hGLP-1R; 0.1% bovine casein, arithmetic mean) [%] | EC50 (hGLP-1R) [nM] | Emax (hGLP-1R; 0.1% bovine casein and 1.0% human serum albumin) [%] |
| --- | --- | --- | --- | --- | --- | --- | --- |
| CC[C@H](C)[C@H](NC(=O)[C@H](CC(C)C)NC(=O)[C@](C)(Cc1ccc(O)cc1)NC(=O)[C@H](CCCCNC(=O)COCCOCCNC(=O)CC[C@H](NC(=O)CCCCCCCCCCCCC(=O)O)C(=O)O)NC(=O)[C@@H](NC(=O)[C@H](Cc1ccccc1)NC(=O)[C@H](CCCN)NC(=O)C(C)(C)NC(=O)[C@H](CCC(N)=O)NC(=O)[C@H](C)NC(=O)[C@H](CCC(N)=O)NC(=O)[C@H](CCCN)NC(=O)[C@H](CC(=O)O)NC(=O)[C@H](CC(C)C)NC(=O)[C@](C)(CC(C)C)NC(=O)[C@@H](NC(=O)C(C)(C)NC(=O)[C@H](Cc1ccncc1)NC(=O)[C@H](CC(=O)O)NC(=O)[C@H](CO)NC(=O)[C@@H](NC(=O)[C@](C)(Cc1ccccc1F)NC(=O)[C@@H](NC(=O)CNC(=O)[C@H](CCC(=O)O)NC(=O)C(C)(C)NC(=O)[C@@H](N)Cc1ccc(O)cc1)[C@@H](C)O)[C@@H](C)O)[C@@H](C)CC)[C@@H](C)CC)C(=O)N[C@@H](CCCCNC(=O)COCCOCCNC(=O)CC[C@H](NC(=O)CCCCCCCCCCCCC(=O)O)C(=O)O)C(=O)NCC(=O)NCC(=O)N1CCC[C@H]1C(=O)N[C@@H](CO)C(=O)N[C@@H](CO)C(=O)NCC(=O)N[C@@H](C)C(=O)N1CCC[C@H]1C(=O)N1CCC[C@H]1C(=O)N1CCC[C@H]1C(=O)N[C@@H](CO)C(N)=O [Example 459] | 89.3 | 0.013 | > 9950 | > 9950 | 120 | 0.18 |  |
| CCCCCCCCCCCC(=O)N[C@@H](CCC(=O)NCCOCCOCC(=O)NCCOCCOCC(=O)NCCCC[C@H](NC(=O)[C@H](CO)NC(=O)[C@@H]1CCCN1C(=O)[C@@H]1CCCN1C(=O)[C@@H]1CCCN1C(=O)[C@H](C)NC(=O)CNC(=O)[C@H](CO)NC(=O)[C@H](CO)NC(=O)[C@@H]1CCCN1C(=O)CNC(=O)CNC(=O)[C@H](CCC(=O)O)NC(=O)[C@@H](NC(=O)[C@H](CC(C)C)NC(=O)[C@](C)(Cc1ccc(O)cc1)NC(=O)[C@@H](CCC(=O)O)NC(=O)[C@@H](NC(=O)[C@](C)(Cc1ccccc1)NC(=O)[C@H](CCC(=O)O)NC(=O)C(C)(C)NC(=O)[C@H](CCC(N)=O)NC(=O)[C@H](C)NC(=O)[C@H](CCCCNC(=O)COCCOCCNC(=O)COCCOCCNC(=O)CC[C@H](NC(=O)CCCCCCCCCCC)C(=O)O)NC(=O)[C@H](CCCN)NC(=O)[C@H](CC(=O)O)NC(=O)[C@H](CC(C)C)NC(=O)[C@](C)(CC(C)C)NC(=O)[C@@H](NC(=O)C(C)(C)NC(=O)[C@H](Cc1ccncc1)NC(=O)[C@H](CC(=O)O)NC(=O)[C@H](CO)NC(=O)[C@@H](NC(=O)[C@](C)(Cc1ccccc1F)NC(=O)[C@@H](NC(=O)CNC(=O)[C@H](CCC(=O)O)NC(=O)C(C)(C)NC(=O)[C@@H](N)Cc1ccc(O)cc1)[C@@H](C)O)[C@@H](C)O)[C@@H](C)CC)[C@@H](C)CC)[C@@H](C)CC)C(N)=O)C(=O)O [Example 431] (H-Y[Aib]EGT[αMePhe(2-F)]TSD[4Pal][Aib]I[αMeL]LD[Orn]K([AEEA-AEEA-γGlu-Lauroyl])AQ[Aib]E[αMeF]I[dE][αMeY]LIEGGPSSGAPPPSK([AEEA-AEEA-γGlu-Lauroyl])-NH2) | 98 | 0.0097 | > 9950 | > 9950 |  | 0.134 | 91.6 |
